Source: patent EP1757607A1, “N5-substituted benzo¬2,3|azepino¬4,5-b|indol-6-ones for treating tropical diseases” (Molisa GmbH, priority 2005, dated 2007)

How the values were obtained:
[1] = target: T1, Trypanothione Synthetase TS (Crithidia fasciculata, UniProt O60993); test: Inhibition of Trypanothione Synthetase (Table 1); type: biochemical; settings: compound concentration not stated for Table 1
T1 sequence (O60993 1-652): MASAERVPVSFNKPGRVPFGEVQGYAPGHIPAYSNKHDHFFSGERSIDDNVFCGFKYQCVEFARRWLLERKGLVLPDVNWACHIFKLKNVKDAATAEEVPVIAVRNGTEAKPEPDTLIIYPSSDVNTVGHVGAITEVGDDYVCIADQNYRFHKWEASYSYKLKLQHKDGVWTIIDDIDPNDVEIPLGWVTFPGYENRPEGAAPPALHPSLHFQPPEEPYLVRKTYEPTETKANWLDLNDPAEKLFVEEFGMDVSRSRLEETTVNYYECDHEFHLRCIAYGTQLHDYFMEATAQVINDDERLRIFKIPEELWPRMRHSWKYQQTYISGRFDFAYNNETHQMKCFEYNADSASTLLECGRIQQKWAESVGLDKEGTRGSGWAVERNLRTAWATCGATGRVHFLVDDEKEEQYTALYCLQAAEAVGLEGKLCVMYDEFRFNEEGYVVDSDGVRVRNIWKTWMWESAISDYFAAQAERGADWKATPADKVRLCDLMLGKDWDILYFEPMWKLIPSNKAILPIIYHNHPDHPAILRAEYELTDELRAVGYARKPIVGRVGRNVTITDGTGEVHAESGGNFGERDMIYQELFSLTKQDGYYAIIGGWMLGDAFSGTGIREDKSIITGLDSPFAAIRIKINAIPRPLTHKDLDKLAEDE

TryS = target: T2, TryS (Crithidia fasciculata, UniProt O60993); test: Screening of potential inhibitors against TryS (malachite green, A650); type: biochemical; settings: 10 µM compound; 90.75 nM TryS, 0.675 mM GSH, 6.75 mM spermidine, 45 µM ATP, room temperature, 60 min; triplicates; read-out: inhibitory effect (%)
T2 sequence (O60993 1-652): T1 sequence (O60993 1-652)
Procedure: The compounds were screened against TryS at 10 µM compound concentration. The inhibitory effect of each compound on TryS was measured in triplicates. Obvious outliers from the triplicates were removed. If the standard deviation of the two remaining inhibition values exceeded 25 % the measurement was repeated.
The screen was performed under the following conditions: 90.75 nM TryS was incubated with 0.675 mM GSH, 6.75 mM spermidine, 45 µM ATP, and 10 µM compound in a total volume of 80 µl 100 mM HEPES pH 7.5, 10 mM MgSO4, 0.1 mM EDTA, 5 mM DTT at room temperature for 60 min. Reaction was stopped by addition of 10 µl malachitgreen reagent. A650 was measured after 20 min. No compound was present in the positive controls (C+). Neither GSH nor spermidine was present in the negative controls (C-).

NCCCNCCCCNC(=O)CN1C(=O)Cc2c([nH]c3ccc(Br)cc23)-c2ccccc21 [Compound 20, N-(4-(3-Amino-1-yl-propylamino)-1-yl-butyl)-2-(9-bromo-6-oxo-6,7-dihydro-5H-benzo[2,3]azepino[4,5-b]indol-5-yl)-acetamide]
Inhibition of TS % [1]: 24.6% | inhibition at 10 µM (TryS): 47.6%

O=C(CN1C(=O)Cc2c([nH]c3ccc(Br)cc23)-c2ccccc21)N1CCNCC1 [Compound 25, N-[2-(9-Bromo-6-oxo-6,7-dihydro-5H-benzo[2,3]azepino[4,5-b]indol-5-yl)-acetyl]-piperazine]
Inhibition of TS % [1]: 76.5%

NCCCCNC(=O)CN1C(=O)Cc2c([nH]c3ccc(Br)cc23)-c2ccccc21 [Compound 19, N-(4-Amino-1-yl-butyl)-2-(9-bromo-6-oxo-6,7-dihydro-5H-benzo[2,3]azepino[4,5-b]indol-5-yl)-acetamide]
Inhibition of TS % [1]: 16.2% | inhibition at 10 µM (TryS): 54.3%

2-(9-Bromo-6-oxo-6,7-dihydro-5H-benzo[2,3]azepino[4,5-b]indol-5-yl)-acetic acid hydrazide [Compound 26]
Inhibition of TS % [1]: 0%

NCCNC(=O)CN1C(=O)Cc2c([nH]c3ccc(Br)cc23)-c2ccccc21 [Compound 17, N-(2-Amino-1-yl-ethyl)-2-(9-bromo-6-oxo-6,7-dihydro-5H-benzo[2,3]azepino[4,5-b]indol-5-yl)-acetamide]
Inhibition of TS % [1]: 78.6% | inhibition at 10 µM (TryS): 96.8%

CNCCNC(=O)CN1C(=O)Cc2c([nH]c3ccc(Br)cc23)-c2ccccc21 [Compound 13, 2-(9-Bromo-6-oxo-6,7-dihydro-5H-benzo[2,3]azepino[4,5-b]indol-5-yl)-N-(2-methylamino-1-yl-ethyl)-acetamide]
Inhibition of TS % [1]: 92.4%

NCCCNC(=O)CN1C(=O)Cc2c([nH]c3ccc(Br)cc23)-c2ccccc21 [Compound 18, N-(3-Amino-1-yl-propyl)-2-(9-bromo-6-oxo-6,7-dihydro-5H-benzo[2,3]azepino[4,5-b]indol-5-yl)-acetamide]
Inhibition of TS % [1]: 37.8% | inhibition at 10 µM (TryS): 85.1%

NCCCCNCCCNC(=O)CN1C(=O)Cc2c([nH]c3ccc(Br)cc23)-c2ccccc21 [Compound 21, N-(3-(4-Amino-1-yl-butylamino)-1-yl-propyl)-2-(9-bromo-6-oxo-6,7-dihydro-5H-benzo[2,3]azepino[4,5-b]indol-5-yl)-acetamide]
Inhibition of TS % [1]: 22.5% | inhibition at 10 µM (TryS): 47.6%

CNCCNC(=O)CN1C(=O)Cc2c([nH]c3ccc(C#N)cc23)-c2ccccc21 [Compound 22, 2-(9-Cyano-6-oxo-6,7-dihydro-5H-benzo[2,3]azepino[4,5-b]indol-5-yl)-N-(2-methylamino-1-yl-ethyl)-acetamide]
Inhibition of TS % [1]: 51.7%

CNCCNC(=O)CN1C(=O)Cc2c([nH]c3ccccc23)-c2ccccc21 [Compound 23, N-(2-Methylamino-1-yl-ethyl)-2-(6-oxo-6,7-dihydro-5H-benzo[2,3]azepino[4,5-b]indol-5-yl)-acetamide]
Inhibition of TS % [1]: 0%

CNCCNC(=O)CN1C(=O)Cc2c([nH]c3ccc(C)cc23)-c2ccccc21 [Compound 24, 2-(9-Methyl-6-oxo-6,7-dihydro-5H-benzo[2,3]azepino[4,5-b]indol-5-yl)-N-(2-methylamino-1-yl-ethyl)-acetamide]
Inhibition of TS % [1]: 20.5%
